Test results as given in patent US9161543B2, “Biocontrol through the use of chlorine-stabilizer blends” (NALCO COMPANY, priority 2011, dated 2015).

Assay: Blending of stabilizer and sodium hypochlorite: residual oxidant (TRO, FRO) and yield
Assay type: physicochemical
Conditions: Molar Ratio Cl2:N2 4:1
Method: A number of biocide formulations were prepared and were applied to samples of process water from a paper mill.

NS(=O)(=O)O [sulfamic acid]
FRO (free residual oxidant) (Caustic in Bleach = 0.5%): 1219 ppm
FRO/TRO (Caustic in Bleach = 0.5%): 18.61%
TRO (total residual oxidant) (Caustic in Bleach = 0.5%): 6550 ppm
TRO Yield (Caustic in Bleach = 0.5%): 80.93%
FRO (free residual oxidant) (Caustic in Bleach = 3.2%): 1450 ppm
FRO/TRO (Caustic in Bleach = 3.2%): 23.02%
TRO (total residual oxidant) (Caustic in Bleach = 3.2%): 6300 ppm
TRO Yield (Caustic in Bleach = 3.2%): 77.84%
